What follows are molecules tested against Recombinant Human Poly(ADP-Ribose) Polymerase (PARP), PARP-1 (Homo sapiens (Human), UniProt P09874). Settings: read-out: PARP-1 (Ki); Table 1; text calls the values EC50s.
Recombinant Human Poly(ADP-Ribose) Polymerase (PARP), PARP-1, sequence (P09874 whole entry): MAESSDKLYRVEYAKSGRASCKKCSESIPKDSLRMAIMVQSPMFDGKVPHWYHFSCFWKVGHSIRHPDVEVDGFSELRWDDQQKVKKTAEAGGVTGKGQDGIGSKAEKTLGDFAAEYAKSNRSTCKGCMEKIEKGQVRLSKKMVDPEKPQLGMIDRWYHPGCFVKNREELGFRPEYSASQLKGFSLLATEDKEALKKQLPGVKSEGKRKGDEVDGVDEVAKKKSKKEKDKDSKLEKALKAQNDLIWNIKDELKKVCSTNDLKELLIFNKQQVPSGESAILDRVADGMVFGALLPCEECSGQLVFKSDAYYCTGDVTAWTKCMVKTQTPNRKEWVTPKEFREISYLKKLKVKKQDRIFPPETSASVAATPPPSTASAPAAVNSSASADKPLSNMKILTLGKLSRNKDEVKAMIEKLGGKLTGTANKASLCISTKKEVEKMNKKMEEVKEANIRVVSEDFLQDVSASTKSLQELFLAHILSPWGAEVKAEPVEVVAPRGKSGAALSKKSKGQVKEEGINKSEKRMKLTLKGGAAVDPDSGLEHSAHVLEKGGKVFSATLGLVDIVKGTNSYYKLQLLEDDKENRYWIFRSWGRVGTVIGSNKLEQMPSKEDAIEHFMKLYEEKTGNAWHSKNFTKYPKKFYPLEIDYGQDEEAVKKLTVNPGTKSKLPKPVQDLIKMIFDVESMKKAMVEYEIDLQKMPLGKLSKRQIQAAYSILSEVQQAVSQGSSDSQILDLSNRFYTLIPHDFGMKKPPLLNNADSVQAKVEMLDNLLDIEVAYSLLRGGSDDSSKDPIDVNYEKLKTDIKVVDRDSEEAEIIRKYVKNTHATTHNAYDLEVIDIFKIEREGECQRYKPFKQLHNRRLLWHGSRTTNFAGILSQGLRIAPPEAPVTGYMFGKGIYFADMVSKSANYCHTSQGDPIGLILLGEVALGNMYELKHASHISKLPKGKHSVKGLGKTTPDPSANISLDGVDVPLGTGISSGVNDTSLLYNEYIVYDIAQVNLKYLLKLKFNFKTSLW
For `N[C@H]1CC(=O)N(c2cc(Cc3n[nH]c(=O)c4c3CCCC4)ccc2F)C1=O` [Example 583, (3S)-3-amino-1-{2-fluoro-5-[(4-oxo-3,4,5,6,7,8-hexahydrophthalazin-1-yl)methyl]phenyl}pyrrolidine-2,5-dione], the Ki was 2.3 nM.
In the case of `CN1CCN(C(=O)Nc2cc(Cc3n[nH]c(=O)c4c3CCCC4)ccc2F)CC1` [Example 584, N-{2-fluoro-5-[(4-oxo-3,4,5,6,7,8-hexahydrophthalazin-1-yl)methyl]phenyl}-4-methylpiperazine-1-carboxamide], the Ki is reported as 68 nM.
Molecule `CCC(=O)N1CCN(C(=O)c2cc(Cc3n[nH]c(=O)c4c3CCCC4)ccc2F)CC1` [Example 585, 4-{4-fluoro-3-[(4-propionylpiperazin-1-yl)carbonyl]benzyl}-5,6,7,8-tetrahydrophthalazin-1(2H)-one] has a Ki of 1.3 nM.
`CCS(=O)(=O)N1CCN(C(=O)c2cc(Cc3n[nH]c(=O)c4c3CCCC4)ccc2F)CC1` [Example 586, 4-(3-{[4-(ethylsulfonyl)piperazin-1-yl]carbonyl}-4-fluorobenzyl)-5,6,7,8-tetrahydrophthalazin-1(2H)-one] was tested, and the Ki was 1.1 nM.
`CC(C)(C)C(=O)N1CCN(C(=O)c2cc(Cc3n[nH]c(=O)c4c3CCCC4)ccc2F)CC1` [Example 587, 4-(3-[4-(2,2-dimethylpropanoyl)piperazin-1-yl]carbonyl-4-fluorobenzyl)-5,6,7,8-tetrahydrophthalazin-1(2H)-one] was tested, and the Ki was 1 nM.
For `O=C(COc1ccccc1)N1CCN(C(=O)c2cc(Cc3n[nH]c(=O)c4c3CCCC4)ccc2F)CC1` [Example 590, 4-(4-fluoro-3-{[4-(phenoxyacetyl)piperazin-1-yl]carbonyl}benzyl)-5,6,7,8-tetrahydrophthalazin-1(2H)-one], the Ki was 1.9 nM.
In the case of `O=C(COc1ccccc1)N1CCN(C(=O)c2cc(Cc3n[nH]c(=O)c4c3NCCC4)ccc2F)CC1` [Example 591, 8-(4-fluoro-3-{[4-(phenoxyacetyl)piperazin-1-yl]carbonyl}benzyl)-2,3,4,6-tetrahydropyrido[2,3-d]pyridazin-5(1H)-one], the Ki is reported as 0.5 nM.
Work on `CC(C)(C)C(=O)N1CCN(C(=O)c2cc(Cc3n[nH]c(=O)c4c3NCCC4)ccc2F)CC1` [Example 593, 8-(3-{[4-(2,2-dimethylpropanoyl)piperazin-1-yl]carbonyl}-4-fluorobenzyl)-2,3,4,6-tetrahydropyrido[2,3-d]pyridazin-5(1H)-one] yielded a Ki of 1.3 nM.
`CCS(=O)(=O)N1CCN(C(=O)c2cc(Cc3n[nH]c(=O)c4c3NCCC4)ccc2F)CC1` [Example 594] showed a Ki of 0.7 nM.
`CC(=O)N(C)C1CCN(C(=O)c2cc(Cc3n[nH]c(=O)c4c3NCCC4)ccc2F)C1` (centres unmarked) [Example 595, N-(1-{2-fluoro-5-[(5-oxo-1,2,3,4,5,6-hexahydropyrido[2,3-d]pyridazin-8-yl)methyl]benzoyl}pyrrolidine-3-yl)-N-methylacetamide] was tested, and the Ki was 6 nM.
With `CCN(C(C)=O)C1CCN(C(=O)c2cc(Cc3n[nH]c(=O)c4c3NCCC4)ccc2F)C1` (centres unmarked) [Example 596, N-ethyl-N-(1-{2-fluoro-5-[(5-oxo-1,2,3,4,5,6-hexahydropyrido[2,3-d]pyridazin-8-yl)methyl]benzoyl}pyrrolidine-3-yl)acetamide] the Ki was 6 nM.
With `CCC(=O)N1CCN(C(=O)c2cc(Cc3n[nH]c(=O)c4c3NCCC4)ccc2F)CC1` [Example 597, 8-{4-fluoro-3-[(4-propionylpiperazin-1-yl)carbonyl]benzyl}-2,3,4,6-tetrahydropyrido[2,3-d]pyridazin-5(1H)-one] the Ki was 0.8 nM.
With `COc1ccc(N2CCN(C(=O)c3cc(Cc4n[nH]c(=O)c5c4NCCC5)ccc3F)CC2)cc1` [Example 599, 8-(4-fluoro-3-{[4-(4-methoxyphenyl)piperazin-1-yl]carbonyl}benzyl)-2,3,4,6-tetrahydropyrido[2,3-d]pyridazin-5(1H)-one] the Ki was 1.1 nM.
`COc1ccc(S(=O)(=O)N2CCN(C(=O)c3cc(Cc4n[nH]c(=O)c5c4NCCC5)ccc3F)CC2)cc1` [Example 600, 8-[4-fluoro-3-({4-[(4-methoxyphenyl)sulfonyl]piperazin-1-yl}carbonyl)benzyl]-2,3,4,6-tetrahydropyrido[2,3-d]pyridazin-5(1H)-one] gave a Ki of 0.7 nM.

Reference: patent publication US9283222B2 (priority 2006, dated 2016)
